Results on one molecule are retold here after paper PMC5218480 (PLoS ONE, 2017).

This assay deals with MV-4-11 cells. Briefly: Gene expression microarray analysis (Affymetrix PrimeView) and GSEA. Format: cell-based, human. Also noted: RFU PODN (11730768_x_at) / Fold change /veh PODN (11730768_x_at) / RFU LINC00158 (11744669_a_at) / Fold change /veh LINC00158 (11744669_a_at) / RFU DUSP10 (11751237_a_at) / Fold change /veh DUSP10 (11751237_a_at) / RFU ID3 (11757404_x_at) / Fold change /veh ID3 (11757404_x_at) / RFU PLEKHG5 (11737974_s_at) / Fold change /veh PLEKHG5 (11737974_s_at) / RFU LRRC4B (11730491_at) / Fold change /veh LRRC4B (11730491_at) / RFU GIMAP4 (11747438_a_at) / Fold change /veh GIMAP4 (11747438_a_at) / RFU KRT8 (11758183_x_at) / Fold change /veh KRT8 (11758183_x_at) / RFU CNN1 (11734310_a_at) / Fold change /veh CNN1 (11734310_a_at) / RFU VPS37D (11726825_at) / Fold change /veh VPS37D (11726825_at) / RFU C10orf10 (11716522_x_at) / Fold change /veh C10orf10 (11716522_x_at) / RFU KIR2DL2 /// KIR2DL4 /// KIR2DL5A /// KIR2DL5B /// KIR2DS1 /// KIR2DS2 /// KIR2DS3 /// KIR2DS4 /// KIR3DL3 /// KIR3DL3 /// KIR3DS1 (11738374_at) / Fold change /veh KIR2DL2 /// KIR2DL4 /// KIR2DL5A /// KIR2DL5B /// KIR2DS1 /// KIR2DS2 /// KIR2DS3 /// KIR2DS4 /// KIR3DL3 /// KIR3DL3 /// KIR3DS1 (11738374_at) / RFU C1QL1 (11718748_at) / Fold change /veh C1QL1 (11718748_at) / RFU TMPRSS4 (11747572_a_at) / Fold change /veh TMPRSS4 (11747572_a_at) / RFU HAMP (11756126_x_at) / Fold change /veh HAMP (11756126_x_at) / RFU RNFT2 (11725882_a_at) / Fold change /veh RNFT2 (11725882_a_at) / RFU NR4A2 (11747474_a_at) / Fold change /veh NR4A2 (11747474_a_at) / RFU ABCC12 (11746883_a_at) / Fold change /veh ABCC12 (11746883_a_at) / RFU TMEM136 (11760407_x_at) / Fold change /veh TMEM136 (11760407_x_at) / RFU CLDN22 /// WWC2 (11732394_at) / Fold change /veh CLDN22 /// WWC2 (11732394_at) / RFU HLA-DPB1 (11760878_x_at) / Fold change /veh HLA-DPB1 (11760878_x_at) / RFU SPINT1 (11716480_a_at) / Fold change /veh SPINT1 (11716480_a_at) / RFU GAP43 (11754022_s_at) / Fold change /veh GAP43 (11754022_s_at) / RFU A4GNT (11735810_at) / Fold change /veh A4GNT (11735810_at) / RFU PRB3 (11715151_x_at) / Fold change /veh PRB3 (11715151_x_at) / RFU TUBB4B (11761932_at) / Fold change /veh TUBB4B (11761932_at) / RFU CAPN14 (11732068_a_at) / Fold change /veh CAPN14 (11732068_a_at) / RFU TMCC2 (11721928_a_at) / Fold change /veh TMCC2 (11721928_a_at) / RFU IRGQ (11745062_a_at) / Fold change /veh IRGQ (11745062_a_at) / RFU FAM174B (11720279_a_at) / Fold change /veh FAM174B (11720279_a_at) / RFU TMPRSS4 (11748680_a_at) / Fold change /veh TMPRSS4 (11748680_a_at) / RFU FAM212B (11763350_a_at) / Fold change /veh FAM212B (11763350_a_at) / RFU PLEKHG5 (11743358_a_at) / Fold change /veh PLEKHG5 (11743358_a_at) / RFU ZSCAN30 (11745921_a_at) / Fold change /veh ZSCAN30 (11745921_a_at) / RFU CMKLR1 (11741424_a_at) / Fold change /veh CMKLR1 (11741424_a_at) / RFU LOC101060620 /// MAPK8IP1 (11723275_at) / Fold change /veh LOC101060620 /// MAPK8IP1 (11723275_at) / RFU SPTSSB (11747773_x_at) / Fold change /veh SPTSSB (11747773_x_at) / RFU PRSS12 (11739890_at) / Fold change /veh PRSS12 (11739890_at) / RFU BIN1 (11741810_x_at) / Fold change /veh BIN1 (11741810_x_at) / RFU WNT11 (11732464_a_at) / Fold change /veh WNT11 (11732464_a_at) / RFU C10orf10 (11716521_a_at) / Fold change /veh C10orf10 (11716521_a_at) / RFU C5orf56 (11738089_at) / Fold change /veh C5orf56 (11738089_at) / RFU CYB561 (11721691_x_at) / Fold change /veh CYB561 (11721691_x_at) / RFU ANKRD19P (11752326_a_at) / Fold change /veh ANKRD19P (11752326_a_at) / RFU OR2T12 /// OR2T33 /// OR2T8 (11738714_s_at) / Fold change /veh OR2T12 /// OR2T33 /// OR2T8 (11738714_s_at) / RFU VCAN (11748164_a_at) / Fold change /veh VCAN (11748164_a_at) / RFU JSRP1 (11732532_at) / Fold change /veh JSRP1 (11732532_at) / RFU KRTAP10-11 (11738290_x_at) / Fold change /veh KRTAP10-11 (11738290_x_at) / RFU MYO3A (11730013_a_at) / Fold change /veh MYO3A (11730013_a_at) / RFU EBF3 (11725865_a_at) / Fold change /veh EBF3 (11725865_a_at) / RFU CAMK2N1 (11719241_x_at) / Fold change /veh CAMK2N1 (11719241_x_at) / RFU C5orf56 (11738088_a_at) / Fold change /veh C5orf56 (11738088_a_at) / RFU OLFML3 (11715873_a_at) / Fold change /veh OLFML3 (11715873_a_at) / RFU LOC100653217 /// NTM (11731650_a_at) / Fold change /veh LOC100653217 /// NTM (11731650_a_at) / RFU MAPK11 (11762145_a_at) / Fold change /veh MAPK11 (11762145_a_at) / RFU FIZ1 (11724087_x_at) / Fold change /veh FIZ1 (11724087_x_at) / RFU OASL (11726364_x_at) / Fold change /veh OASL (11726364_x_at) / RFU SOX15 (11748057_x_at) / Fold change /veh SOX15 (11748057_x_at) / RFU CD79A (11719716_a_at) / Fold change /veh CD79A (11719716_a_at) / RFU HIST1H1D (11736915_at) / Fold change /veh HIST1H1D (11736915_at) / RFU CASKIN2 (11723855_a_at) / Fold change /veh CASKIN2 (11723855_a_at) / RFU LOC730098 (11760151_x_at) / Fold change /veh LOC730098 (11760151_x_at) / RFU OR4N2 (11742367_at) / Fold change /veh OR4N2 (11742367_at) / RFU PRRT2 (11749266_a_at) / Fold change /veh PRRT2 (11749266_a_at) / RFU SNX32 (11753110_a_at) / Fold change /veh SNX32 (11753110_a_at) / RFU CDHR5 (11726645_a_at) / Fold change /veh CDHR5 (11726645_a_at) / RFU RCAN1 (11760418_a_at) / Fold change /veh RCAN1 (11760418_a_at) / RFU FAM167A (11723789_a_at) / Fold change /veh FAM167A (11723789_a_at) / RFU FAM26E (11764081_at) / Fold change /veh FAM26E (11764081_at) / RFU ISYNA1 (11749810_s_at) / Fold change /veh ISYNA1 (11749810_s_at) / RFU ACY1 (11761880_at) / Fold change /veh ACY1 (11761880_at) / RFU 11764098_at / Fold change /veh 11764098_at / RFU SAMD14 (11745864_x_at) / Fold change /veh SAMD14 (11745864_x_at) / RFU NPB (11741838_a_at) / Fold change /veh NPB (11741838_a_at) / RFU TMPRSS6 (11731388_a_at) / Fold change /veh TMPRSS6 (11731388_a_at) / RFU KRTAP10-2 (11738614_at) / Fold change /veh KRTAP10-2 (11738614_at) / RFU ARHGAP8 /// PRR5-ARHGAP8 (11727945_x_at) / Fold change /veh ARHGAP8 /// PRR5-ARHGAP8 (11727945_x_at) / RFU KRTAP5-7 /// NADSYN1 (11734609_at) / Fold change /veh KRTAP5-7 /// NADSYN1 (11734609_at) / RFU RASL12 (11751679_a_at) / Fold change /veh RASL12 (11751679_a_at) / RFU CDKN2B (11736163_a_at) / Fold change /veh CDKN2B (11736163_a_at) / RFU PRF1 (11729649_at) / Fold change /veh PRF1 (11729649_at) / RFU, ZNF638 /// ZNF638-IT1 / Fold change vs veh, ZNF638 /// ZNF638-IT1 / RFU, PANK3 / Fold change vs veh, PANK3 / RFU, SH3YL1 / Fold change vs veh, SH3YL1 / RFU, ZEB2 / Fold change vs veh, ZEB2 / RFU, NRIP1 / Fold change vs veh, NRIP1 / RFU, PTTG1IP / Fold change vs veh, PTTG1IP / RFU, CAPN2 / Fold change vs veh, CAPN2 / RFU, MED14 / Fold change vs veh, MED14 / RFU, SNORA58 / Fold change vs veh, SNORA58 / RFU, C1orf63 / Fold change vs veh, C1orf63 / RFU, LRRFIP1 / Fold change vs veh, LRRFIP1 / RFU, NDUFAF7 / Fold change vs veh, NDUFAF7 / RFU, SLC12A2 / Fold change vs veh, SLC12A2 / RFU, IBTK / Fold change vs veh, IBTK / RFU, ESF1 / Fold change vs veh, ESF1 / Fold change vs veh, TMEM50B / RFU, TAOK1 / Fold change vs veh, TAOK1 / RFU, ACBD3 / Fold change vs veh, ACBD3 / RFU, TMA16 / Fold change vs veh, TMA16 / RFU, RWDD3 / Fold change vs veh, RWDD3 / RFU, BCAT1 / Fold change vs veh, BCAT1 / RFU, EDEM3 / Fold change vs veh, EDEM3 / RFU, TMEM33 / Fold change vs veh, TMEM33 / RFU, WDR75 / Fold change vs veh, WDR75 / RFU, AHCTF1 / Fold change vs veh, AHCTF1 / RFU, TFRC / Fold change vs veh, TFRC / RFU, ZDHHC17 / Fold change vs veh, ZDHHC17 / RFU, NOM1 / Fold change vs veh, NOM1 / RFU, ARL8B / Fold change vs veh, ARL8B / RFU, ZBTB11 / Fold change vs veh, ZBTB11 / RFU, TAMM41 / Fold change vs veh, TAMM41 / RFU, KIAA1704 /// LOC100996395 / Fold change vs veh, KIAA1704 /// LOC100996395 / RFU, ING1 / Fold change vs veh, ING1 / RFU, TRMT61B / Fold change vs veh, TRMT61B / RFU, FUBP3 / Fold change vs veh, FUBP3 / RFU, TP53 / Fold change vs veh, TP53 / RFU, TNKS2 / Fold change vs veh, TNKS2 / RFU, ZFP14 / Fold change vs veh, ZFP14 / RFU, ACTR2 / Fold change vs veh, ACTR2 / RFU, PPP3R1 / Fold change vs veh, PPP3R1 / RFU, PIK3R1 / Fold change vs veh, PIK3R1 / RFU, HNRNPA1 / Fold change vs veh, HNRNPA1 / RFU, RNF170 / Fold change vs veh, RNF170 / RFU, ZNF28 / Fold change vs veh, ZNF28 / RFU, RNGTT / Fold change vs veh, RNGTT / RFU, OGT / Fold change vs veh, OGT / RFU, BRD1 / Fold change vs veh, BRD1 / RFU, MARS / Fold change vs veh, MARS / RFU, ZNF655 / Fold change vs veh, ZNF655 / RFU, FAHD1 / Fold change vs veh, FAHD1 / RFU, BDP1 / Fold change vs veh, BDP1 / RFU, LRRCC1 / Fold change vs veh, LRRCC1 / RFU, ARID1A / Fold change vs veh, ARID1A / RFU, ZNF146 / Fold change vs veh, ZNF146 / RFU, ZNF330 / Fold change vs veh, ZNF330 / RFU, GPN3 / Fold change vs veh, GPN3 / RFU, C9orf123 / Fold change vs veh, C9orf123 / RFU, N4BP2L2 / Fold change vs veh, N4BP2L2 / RFU, ARFIP1 / Fold change vs veh, ARFIP1 / RFU, FAM179B / Fold change vs veh, FAM179B / RFU, BCL10 / Fold change vs veh, BCL10 / RFU, UHRF1BP1L / Fold change vs veh, UHRF1BP1L / RFU, BET1 / Fold change vs veh, BET1 / RFU, CNOT2 / Fold change vs veh, CNOT2 / RFU, ZNF268 / Fold change vs veh, ZNF268 / Fold change vs veh, ZNF507 / RFU, DGCR2 / Fold change vs veh, DGCR2 / RFU, WDSUB1 / Fold change vs veh, WDSUB1 / Fold change vs veh, HSP90B1 /// MIR3652 / RFU, ADSS / Fold change vs veh, ADSS / RFU, GK / Fold change vs veh, GK / RFU, ZNF148 / Fold change vs veh, ZNF148 / RFU, TAF9 / Fold change vs veh, TAF9 / RFU, SLC1A5 / Fold change vs veh, SLC1A5 / RFU, SLMO2 / Fold change vs veh, SLMO2 / RFU, ABCC4 / Fold change vs veh, ABCC4 / RFU, LOC101060439 /// RAP1B / Fold change vs veh, LOC101060439 /// RAP1B / RFU, RFX7 / Fold change vs veh, RFX7 / RFU, GTPBP10 / Fold change vs veh, GTPBP10 / RFU, CNEP1R1 / Fold change vs veh, CNEP1R1 / RFU, BIVM-ERCC5 /// ERCC5 / Fold change vs veh, BIVM-ERCC5 /// ERCC5 / RFU, ILF3 / Fold change vs veh, ILF3 / RFU 11762660_at / Fold change /veh 11762660_at / RFU VCAN (11757783_s_at) / Fold change /veh VCAN (11757783_s_at) / RFU DDX43 (11728927_at) / Fold change /veh DDX43 (11728927_at) / RFU KRT8 (11758188_x_at) / Fold change /veh KRT8 (11758188_x_at) / RFU NKD1 (11759106_at) / Fold change /veh NKD1 (11759106_at) / RFU SRD5A1 (11742802_a_at) / Fold change /veh SRD5A1 (11742802_a_at) / RFU TPSAB1 /// TPSB2 (11721975_s_at) / Fold change /veh TPSAB1 /// TPSB2 (11721975_s_at) / RFU GSTM3 (11746129_a_at) / Fold change /veh GSTM3 (11746129_a_at) / RFU IL23R (11737362_x_at) / Fold change /veh IL23R (11737362_x_at) / RFU TMEM51 (11727254_a_at) / Fold change /veh TMEM51 (11727254_a_at) / RFU PIWIL2 (11732686_x_at) / Fold change /veh PIWIL2 (11732686_x_at) / RFU ORM1 (11744905_x_at) / Fold change /veh ORM1 (11744905_x_at) / RFU CCDC152 (11743942_at) / Fold change /veh CCDC152 (11743942_at) / RFU ECM1 (11717891_a_at) / Fold change /veh ECM1 (11717891_a_at) / RFU IL23R (11748794_a_at) / Fold change /veh IL23R (11748794_a_at) / RFU TNFAIP8L3 (11732012_x_at) / Fold change /veh TNFAIP8L3 (11732012_x_at) / RFU MBOAT4 (11741988_at) / Fold change /veh MBOAT4 (11741988_at) / RFU 11764193_at / Fold change /veh 11764193_at / RFU TMEM53 (11763286_at) / Fold change /veh TMEM53 (11763286_at) / RFU MAGEB2 (11727129_at) / Fold change /veh MAGEB2 (11727129_at) / RFU TMEM200A (11744735_a_at) / Fold change /veh TMEM200A (11744735_a_at) / RFU CCDC152 (11751479_a_at) / Fold change /veh CCDC152 (11751479_a_at) / RFU FAM211A (11726209_a_at) / Fold change /veh FAM211A (11726209_a_at) / RFU RGS16 (11746705_a_at) / Fold change /veh RGS16 (11746705_a_at) / RFU VCAN (11755009_s_at) / Fold change /veh VCAN (11755009_s_at) / RFU RHOB (11743442_s_at) / Fold change /veh RHOB (11743442_s_at) / RFU RGS16 (11720943_a_at) / Fold change /veh RGS16 (11720943_a_at) / RFU RGS16 (11720944_at) / Fold change /veh RGS16 (11720944_at) / RFU, VPS4B / Fold change vs veh, VPS4B / RFU, CREB1 / Fold change vs veh, CREB1 / RFU, DNAJC13 / Fold change vs veh, DNAJC13 / RFU, GNAQ / Fold change vs veh, GNAQ / RFU, CDK5R1 / Fold change vs veh, CDK5R1 / RFU, ZRANB3 / Fold change vs veh, ZRANB3 / RFU, CUL4A / Fold change vs veh, CUL4A / RFU, CCNY / Fold change vs veh, CCNY / RFU, UFL1 / Fold change vs veh, UFL1 / RFU, COG3 / Fold change vs veh, COG3 / RFU, DIAPH2 / Fold change vs veh, DIAPH2 / RFU, SKA2 / Fold change vs veh, SKA2 / RFU, AFF3 / Fold change vs veh, AFF3 / RFU, LMF1 / Fold change vs veh, LMF1 / RFU, IPO11 / Fold change vs veh, IPO11 / RFU, DFFB / Fold change vs veh, DFFB / RFU, FOXP1 / Fold change vs veh, FOXP1 / RFU, CARD8 / Fold change vs veh, CARD8 / RFU, STRN3 / Fold change vs veh, STRN3 / RFU, ADK / Fold change vs veh, ADK / RFU, RASSF2 / Fold change vs veh, RASSF2 / RFU, WIPF1 / Fold change vs veh, WIPF1 / RFU, LARP1B / Fold change vs veh, LARP1B / RFU, RASA1 / Fold change vs veh, RASA1 / RFU, RB1 / Fold change vs veh, RB1 / RFU, PPFIA1 / Fold change vs veh, PPFIA1 / RFU, MAT2A / Fold change vs veh, MAT2A / RFU, CCT5 / Fold change vs veh, CCT5 / RFU, WDR92 / Fold change vs veh, WDR92 / RFU, CUX1 / Fold change vs veh, CUX1 / RFU, TTC7A / Fold change vs veh, TTC7A / RFU, TMEM135 / Fold change vs veh, TMEM135 / RFU, DEPTOR / Fold change vs veh, DEPTOR / RFU, CPM / Fold change vs veh, CPM / RFU, DNAJB6 / Fold change vs veh, DNAJB6 / RFU, CACNA2D3 / Fold change vs veh, CACNA2D3 / RFU, DTX4 / Fold change vs veh, DTX4 / RFU, TFCP2 / Fold change vs veh, TFCP2 / RFU, GMCL1 /// GMCL1P1 / Fold change vs veh, GMCL1 /// GMCL1P1 / RFU, AEBP2 / Fold change vs veh, AEBP2 / RFU, SNHG1 /// SNORD22 /// SNORD25 /// SNORD26 /// SNORD27 /// SNORD28 /// SNORD29 /// SNORD31 / Fold change vs veh, SNHG1 /// SNORD22 /// SNORD25 /// SNORD26 /// SNORD27 /// SNORD28 /// SNORD29 /// SNORD31 / Fold change (Aza/veh), C12orf56 (ProbeSet 11735607_a_at) / Fold change (ACY-1035/veh), C12orf56 (ProbeSet 11735607_a_at) / Fold change (Aza/veh), FGFR1OP (ProbeSet 11751329_s_at) / Fold change (ACY-1035/veh), FGFR1OP (ProbeSet 11751329_s_at) / Fold change (Aza/veh), VPS36 (ProbeSet 11739960_a_at) / Fold change (ACY-1035/veh), VPS36 (ProbeSet 11739960_a_at) / RFU SYPL1 (11715823_x_at) / Fold change /veh SYPL1 (11715823_x_at) / RFU IGFBP7 (11715501_s_at) / Fold change /veh IGFBP7 (11715501_s_at) / RFU REEP3 (11722064_at) / Fold change /veh REEP3 (11722064_at) / RFU IGLL1 (11728026_x_at) / Fold change /veh IGLL1 (11728026_x_at): dose or concentration left out as unconfirmed. Particulars: MV-4-11 cells, 48 hours.

In the case of `Nc1ncn([C@@H]2O[C@H](CO)[C@@H](O)[C@H]2O)c(=O)n1` [azacitidine], the “Fold change /veh CAPN14 (11732068_a_at)” value worked out at 1.07.
